Measured values reported in patent US10106577B2, “Agonists of neurotrophin receptors and their use as medicaments” (BIONURE FARMA, S.L., priority 2010, dated 2018).

Tested on: iNOS
Experiment: Neuroinflammation in vitro model, organotypic cerebellar culture challenged with LPS, real-time PCR
Type: cell-based, mice
Conditions: G79 100 ng/ml pre-treatment; 24 h after the challenge with LPS
Source text: Neonates mice (day 8 after birth (P8)) were decapitated after anaesthetic IP injection and whole brains were removed aseptically. Cerebellum was separated from the rest of the brain and placed on a metal vibratome plate. Once the cerebellum was attached to the surface of the plate, 400 μm sagittal sections were cut using the vibratome. The slices were then transferred with a plastic Pasteur pipette to a cell culture plate containing an organotypic culture medium (5% CO2 in 50% basal medium with Earle's salt, 25% Hank's buffered salt solution, 25% inactivated horse serum, 5 mg/ml glucose, 0.25 mM L-glutamine and 25 μg/ml penicillin/streptomycin). After separating and isolating each slice, the cerebellar slices were then transferred to 6-well plates (3 slices for each well) containing a 30 mm culture plate insert with 0.4 μm pores (Millipore) and 1 ml full culture medium, pre-conditioned by incubation for at least 2 hours at 37° C., and 5% CO2 was added into each well below the insert. […]
Organotypic slices collected from the LPS stimulation experiment were homogenized in RNA lysis buffer. […] Primers and target-specific fluorescence-labeled TaqMan probes were purchased from Applied Biosystems (TaqMan Gene Expression assays). […] The expression of the gene tested was quantified relative to the level of the housekeeping gene GAPDH.

CC(C)CN(CC(=O)N(CCCN1CCCC1=O)CC(N)=O)C(=O)CNCCc1ccccc1F [Compound G79, [N-(2-(2′-Fluorophenyl)ethyl)glycyl]-[N-(2-methylpropyl)glycyl]-N-[3-(2′-oxopyrrolidinyl)propyl]glycinamide]
expression of iNOS compared to placebo pre-treated samples: decrease in the expression of iNOS
